Square brackets hold non-standard residues; d marks the D form. Peptide text beside a SMILES is read from it. * marks the point of attachment. Lauroyl = CCCCCCCCCCCC(=O)*; Orn = NCCC[C@H](N)C(=O)O; Dab = NCC[C@H](N)C(=O)O
How the values were obtained:
in vitro = in vitro ADME, rat or human serum; conditions: half-life of peptide in serum as detected by HPLC analysis; for half-life at 0.5 mg/mL: serum, read-out: HPLC Peptide in Serum t ½ (converted)
Procedure: (§1) For these serum stability experiments, peptides were prepared by solid phase peptide sythesis and purified to 94% or greater purity as described in Example 1. Blood was collected from metaphane anesthesized rats by aortic bleed into Vacutainer™ tubes and allowed to clot at room temperature for approximately 30 minutes, then centrifuged at 3000 rpm (about 1000×g) for 10 minutes at room temperature and the serum aspirated. In addition, frozen human serum (North American Biologics, Inc., Miami, Fla., cat. no. 2140, lot no. 94115) was thawed at room temperature and filtered through a 0.45 μm membrane before use.
(§2) A 1 mg/mL solution of an exemplary XMP peptide to be tested was added to an equal volume of either rat or human serum described above and maintained at 37° C. At 0, 1, 2, and 4 hours, 100 μL were removed and processed by solid phase extraction for HPLC analysis as follows. Serum samples were prepared for HPLC using C-18 Sep-Pak cartridges (1 mL cartridge with 100 mg of sorbent, Waters Corp., Milford, Mass.). One hundred μL of serum sample were added to an equal volume of 1% TFA and mixed for 30 seconds on a Vortex mixer. The sample was then applied to a C-18 Sep-Pak cartridge that had been conditioned by washing with 1 mL of methanol followed by 1 mL Milli-Q water. Weakly reed components were eluted by washing with 1 mL of 0. 1% TFA. The bound peptide was eluted with two volumes of 250 μL 80% acetonitrile/0.065% TFA.
The material eluted from the Sep-Pak cartridge was analyzed on a Michrom Ultaafast Microprotein Analyzer equipped with a 150 mm×1 mm, 5μ particle, 300 Å pore C-8 Zorbax column. The column oven was set to 40° C., the flow rate was 100 μL/minute, and injection volumes were typically 5-10 μL. HPLC was performed using 5% acetonitrile/0.1% TFA in water as mobile phase A, and 80% acetonitrile/0.065% TFA as mobile phase B. The eluate was monitored spectiophotometrically at 214 nm. Peptide standards were dissolved in mobile phase A at 0. 1 mg/mL. The gradient was 25-35% B/10 minutes followed by a 5 minute wash step of 100% B and reequilibration at 25% B for 10 minutes.

[1] = test system: C. albicans (CA-1, Strain SLU-1); assay: Radial diffusion assay; type: cell-based, Candida albicans; conditions: pmoles of peptide added to well to achieve a 30 mm^2 zone, PROBIT analysis, crude or purified (P′) peptide
Procedure, shortened: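 Yeast at 1×10^6 CFU/mL in agarose underlayer (3% Sabouraud, 10 mM sodium phosphate pH 7.4); 2-fold peptide dilutions in D-PBS from ~1 mg/mL loaded into wells, 3 h at 37° C, then nutrient overlayer overnight. Value: pmol/well giving 30 mm^2 net clear zone, by PROBIT regression.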

[2] = test system: Candida albicans SLU-1 strain; assay: Serum stability, anti-fungal activity after serum incubation by radial diffusion bioassay; type: in vitro ADME, rat or human serum
Procedure: as §1, §2
(§3) The peptides identified and purified after serum incubation as described above were subjected to N-terminal peptide sequencing performed on an Applied Biosystems Model 477A/120A sequencer and to electrospray ionization mass spectrometry (ESI/MS) performed using a VG Biotech Bio-Q Mass Spectrometer. In addition, the peptides identified and purified after serum incubation as described above were also tested for their anti-fungal activity in a radial diffusion bioassay with Candida albicans SLU-1 strain as described in Example 2.

[3] = as above; type: in vitro ADME, rat or human serum; conditions: Activity in Serum t ½ (hr.)
Procedure: as §1, §2, §3

mouse RAW 264.7 cells = conditions: RAW 264.7 cell growth inhibited by 50%
[4] = test system: mouse RAW 264.7 cells incubated with E. coli O113 LPS; conditions: RAW 264.7 cells with E. coli O113 LPS; concentration reversing LPS growth inhibition by 50%

| Molecule | C. albicans pmol/30 mm^2 zone [1] | half-life at 0.5 mg/mL (in vitro) [h] | half-life at 0.5 mg/mL [3] [h] | other results |
| --- | --- | --- | --- | --- |
| CC[C@@H](C)[C@@H](NC(=O)[C@@H](CCC(N)=O)NC(=O)[C@@H](CC(C)C)NC(=O)[C@H](N)CCCCN)C(=O)N[C@H](CC(C)C)C(=O)N[C@H](Cc1c[nH]c2ccccc12)C(=O)N[C@H](CCCCN)C(=O)N[C@H](CCCCN)C(N)=O [XMP.374] | 198 pmol/30 mm^2 zone | – | – | HPLC Peptide in Serum t ½ (hr.) (in vitro): indefinite; Activity in Serum t ½ (hr.) [2]: indefinite |
| CC[C@H](C)[C@H](NC(=O)[C@H](CC(C)C)NC(=O)[C@H](Cc1c[nH]c2ccccc12)NC(=O)[C@H](CCCCN)NC(C)=O)C(=O)N[C@@H](CCN)C(=O)N[C@@H](CC(C)C)C(=O)N[C@@H](Cc1ccccc1)C(=O)N[C@@H](Cc1c[nH]cn1)C(=O)N[C@@H](CCCCN)C(=O)N[C@@H](CCCCN)C(N)=O [XMP.372] (Ac-KWLI[Dab]LFHKK-NH2) | 328 pmol/30 mm^2 zone | 6.6 | 1.4 | – |
| CC[C@@H](C)[C@@H](NC(=O)[C@@H](C)NC(=O)[C@@H](Cc1c[nH]c2ccccc12)NC(=O)[C@@H](CCCCN)NC(=O)[C@H](N)CCCCN)C(=O)N[C@H](CCC(N)=O)C(=O)N[C@H](CC(C)C)C(=O)N[C@H](CCCCN)C(=O)N[C@H](CCCCN)C(N)=O [XMP.375] (H-[dK][dK][dW][dA][dI][dQ][dL][dK][dK]-NH2) | 123 pmol/30 mm^2 zone | – | – | HPLC Peptide in Serum t ½ (hr.) (in vitro): indefinite; Activity in Serum t ½ (hr.) [2]: indefinite |
| CC[C@H](C)[C@H](NC(=O)[C@H](CC(C)C)NC(=O)[C@H](Cc1c[nH]c2ccccc12)NC(=O)[C@H](CCCCN)NC(=O)[C@@H]1CCCN1)C(=O)N[C@@H](CCC(N)=O)C(=O)N[C@@H](CC(C)C)C(=O)N[C@@H](CCCCN)C(=O)N[C@@H](CCCCN)C(N)=O [XMP.335] | 871 pmol/30 mm^2 zone | 2.9 | 1.3 | C. albicans pmol/30 mm^2 zone ([1]; listed as XMP.335P′): 1,353 pmol/30 mm^2 zone |
| H-KKPWAIQLKK-NH2 [XMP.379] | 547 pmol/30 mm^2 zone | 0.8 | 0.3 | – |
| H-GWLIQLFHKK-NH2 [XMP.388] | 170 pmol/30 mm^2 zone | 0.4 | 1.4 | – |
| H-PWAIQLFHKK-NH2 [XMP.387] | 82 pmol/30 mm^2 zone | 2.8 | 2.3 | – |
| CC[C@H](C)[C@H](NC(=O)[C@H](CC(C)C)NC(=O)[C@@H](Cc1c[nH]c2ccccc12)NC(=O)[C@@H](CCCCN)NC(C)=O)C(=O)N[C@@H](CCC(N)=O)C(=O)N[C@@H](CC(C)C)C(=O)N[C@@H](Cc1ccccc1)C(=O)N[C@@H](Cc1c[nH]cn1)C(=O)N[C@H](CCCCN)C(=O)N[C@H](CCCCN)C(N)=O [XMP.364] | 1,523 pmol/30 mm^2 zone | 25 | – | Activity in Serum t ½ (hr.) [2]: indefinite |
| CC[C@H](C)[C@H](NC(=O)[C@H](CC(C)C)NC(=O)[C@H](Cc1c[nH]c2ccccc12)NC(=O)[C@@H](N)CCCCN)C(=O)N[C@@H](CCCN)C(=O)N[C@@H](CC(C)C)C(=O)N[C@@H](Cc1ccccc1)C(=O)N[C@@H](Cc1c[nH]cn1)C(=O)N[C@@H](CCCCN)C(=O)N[C@@H](CCCCN)C(N)=O [XMP.369] (H-KWLI[Orn]LFHKK-NH2) | 993 pmol/30 mm^2 zone | 0.6 | 1.4 | C. albicans pmol/30 mm^2 zone ([1]; listed as XMP.369P′): 877 pmol/30 mm^2 zone |
| H-KKWLIQLKKK-NH2 [XMP.349] | 120 pmol/30 mm^2 zone | 1.4 | 3.3 | – |
| CC[C@H](C)[C@H](NC(=O)[C@H](CC(C)C)NC(=O)[C@H](Cc1c[nH]c2ccccc12)NC(=O)[C@H](CCCCN)NC(=O)[C@H]1CCCN1)C(=O)N[C@@H](CCC(N)=O)C(=O)N[C@@H](CC(C)C)C(=O)N[C@@H](CCCCN)C(=O)N[C@@H](CCCCN)C(N)=O [XMP.334] | 1,449 pmol/30 mm^2 zone | 3.2 | 4.7 | C. albicans pmol/30 mm^2 zone ([1]; listed as XMP.334P′): 1,065 pmol/30 mm^2 zone |
| CC[C@@H](C)[C@@H](NC(=O)[C@@H](CCC(N)=O)NC(=O)[C@@H](CC(C)C)NC(=O)[C@@H](CCCCN)NC(=O)[C@H](N)CCCCN)C(=O)N[C@H](C)C(=O)N[C@H](Cc1c[nH]c2ccccc12)C(=O)N[C@H](CCCCN)C(=O)N[C@H](CCCCN)C(N)=O [XMP.376] (H-[dK][dK][dL][dQ][dI][dA][dW][dK][dK]-NH2) | 138 pmol/30 mm^2 zone | – | – | HPLC Peptide in Serum t ½ (hr.) (in vitro): indefinite; Activity in Serum t ½ (hr.) [2]: indefinite |
| H-PWLIQLFHKK-NH2 [XMP.355] | 2,529 pmol/30 mm^2 zone | 3.2 | 5.7 | C. albicans pmol/30 mm^2 zone ([1]; listed as XMP.355P′): 218 pmol/30 mm^2 zone |
| CC[C@H](C)[C@H](NC(=O)[C@H](CC(C)C)NC(=O)[C@@H](Cc1c[nH]c2ccccc12)NC(=O)[C@H](N)CCCCN)C(=O)N[C@@H](CCC(N)=O)C(=O)N[C@@H](CC(C)C)C(=O)N[C@@H](Cc1ccccc1)C(=O)N[C@@H](Cc1c[nH]cn1)C(=O)N[C@H](CCCCN)C(=O)N[C@H](CCCCN)C(N)=O [XMP.363] | 1,015 pmol/30 mm^2 zone | 11.8 | – | C. albicans pmol/30 mm^2 zone ([1]; listed as XMP.363P′): 741 pmol/30 mm^2 zone; Activity in Serum t ½ (hr.) [2]: indefinite |
| H-KKWLIQLFHKK-NH2 [XMP.352] | 354 pmol/30 mm^2 zone | 0.7 | 1.2 | – |
| H-KKWAIQLKK-NH2 [XMP.344] | 251 pmol/30 mm^2 zone | 0.6 | 3.3 | – |
| H-KKWLIQAKK-NH2 [XMP.345] | 1,211 pmol/30 mm^2 zone | 1.4 | 2.7 | – |
| CC[C@H](C)[C@H](NC(=O)[C@H](CC(C)C)NC(=O)[C@H](Cc1c[nH]c2ccccc12)NC(=O)[C@H](CCCCN)NC(C)=O)C(=O)N[C@@H](CCCN)C(=O)N[C@@H](CC(C)C)C(=O)N[C@@H](Cc1ccccc1)C(=O)N[C@@H](Cc1c[nH]cn1)C(=O)N[C@@H](CCCCN)C(=O)N[C@@H](CCCCN)C(N)=O [XMP.370] (Ac-KWLI[Orn]LFHKK-NH2) | 310 pmol/30 mm^2 zone | 2.9 | 4.7 | – |
| CCCCCCCCCCCC(=O)N[C@@H](CCCCN)C(=O)N[C@@H](CCCCN)C(=O)N[C@@H](Cc1c[nH]c2ccccc12)C(=O)N[C@@H](C)C(=O)N[C@H](C(=O)N[C@@H](CCC(N)=O)C(=O)N[C@@H](CC(C)C)C(=O)N[C@@H](CCCCN)C(=O)N[C@@H](CCCCN)C(N)=O)[C@@H](C)CC [XMP.411] (Lauroyl-KKWAIQLKK-NH2; C-terminus assumed) | – | 9.7 | 4.2 | IC50 (toxicity/growth inhibition of peptide) (mouse RAW 264.7 cells): >25 µg/mL; In Vitro LPS Neutralization EC50 [4]: 2.94 ± 0.14 µg/mL |
